Where a SMILES comes first, the peptide text is derived from it. The star is where a group is joined. Stearoyl = CCCCCCCCCCCCCCCCCC(=O)*
Assay: Binding affinity to NK1R (unknown origin) expressed in HEK293 cells assessed as reduction in cell viability incubated for 96 hrs by MTT assay

CCCCCCCCCCCCCCCCCC(=O)N[C@@H](CCCCN)C(=O)N[C@@H](Cc1c[nH]c2ccccc12)C(=O)N[C@@H](CCCCN)C(=O)N[C@@H](CC(C)C)C(=O)N[C@@H](CCC(=O)O)C(=O)N[C@@H](CCCCN)C(=O)N[C@@H](CCCCN)C(=O)N[C@H](C(=O)NCC(=O)N[C@@H](C)C(=O)N[C@H](C(=O)N[C@@H](CC(C)C)C(=O)N[C@H](C(=O)N[C@@H](CS)C(=O)N[C@H](C(=O)N[C@@H](CC(C)C)C(=O)N[C@@H](CCCNC(=N)N)C(=O)N1CCC[C@H]1C(=O)N[C@@H](CCCCN)C(=O)N1CCC[C@H]1C(=O)N[C@@H](CCC(N)=O)C(=O)N[C@@H](CCC(N)=O)C(=O)N[C@@H](Cc1ccccc1)C(=O)N[C@@H](Cc1ccccc1)C(=O)NCC(=O)N[C@@H](CC(C)C)C(=O)N[C@@H](CCSC)C(N)=O)C(C)C)[C@@H](C)CC)C(C)C)[C@@H](C)CC (Stearoyl-KWKLEKKIGAVLICVLRPKPQQFFGLM-NH2)
EC50: 5.3 µM

From BindingDB's records for doi:10.1016/j.bmcl.2020.127353 (Lanzhou University, 2020)
